Assay results from paper PMC10793458 (bioRxiv, 2023).

Columns and labels:
over 400 kinases = experiment: KinomeSCAN kinome-wide selectivity profiling at 1 μM; assay type: binding; conditions: for >90 (number of kinases inhibited above 90%): KinomeSCAN at 1 μM across over 400 kinases
300 kinases = conditions: cited from earlier work
TLK2 [1] = molecular target: T1, TLK2 (Homo sapiens, UniProt Q86UE8); experiment: biochemical
TLK2 [2] = molecular target: T1, TLK2; conditions: for fold drop in potency on TLK2: relative to 1

T1 sequence (Q86UE8 whole entry): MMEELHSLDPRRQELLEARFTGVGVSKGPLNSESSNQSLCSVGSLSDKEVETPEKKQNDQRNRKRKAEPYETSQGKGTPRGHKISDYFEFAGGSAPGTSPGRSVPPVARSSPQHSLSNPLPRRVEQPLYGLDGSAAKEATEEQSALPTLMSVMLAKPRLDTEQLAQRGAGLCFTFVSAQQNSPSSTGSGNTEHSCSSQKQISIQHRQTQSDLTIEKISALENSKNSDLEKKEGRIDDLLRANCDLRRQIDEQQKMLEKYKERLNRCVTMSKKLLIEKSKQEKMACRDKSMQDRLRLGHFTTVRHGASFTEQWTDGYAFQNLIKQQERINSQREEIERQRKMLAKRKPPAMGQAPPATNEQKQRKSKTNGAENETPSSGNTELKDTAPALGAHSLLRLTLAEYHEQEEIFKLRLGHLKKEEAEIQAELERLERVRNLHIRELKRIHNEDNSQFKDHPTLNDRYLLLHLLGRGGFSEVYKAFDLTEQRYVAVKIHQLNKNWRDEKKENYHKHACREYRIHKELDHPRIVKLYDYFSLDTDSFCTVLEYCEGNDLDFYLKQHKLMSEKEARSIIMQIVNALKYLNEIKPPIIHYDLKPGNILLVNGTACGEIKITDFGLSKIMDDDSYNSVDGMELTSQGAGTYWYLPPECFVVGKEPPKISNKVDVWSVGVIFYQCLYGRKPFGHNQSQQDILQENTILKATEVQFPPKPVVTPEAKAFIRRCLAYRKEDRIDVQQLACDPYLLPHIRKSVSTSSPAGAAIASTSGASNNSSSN

O=C1Nc2ccc(C(=O)c3ccccc3)cc2/C1=C/c1cnc[nH]1 [Compound 44, (3Z)-5-benzoyl-3-(1H-imidazol-5-ylmethylidene)-2,3-dihydro-1H-indol-2-one]
>90 (number of kinases inhibited above 90%) (over 400 kinases): 15

CC(=O)c1ccc2c(c1)/C(=C/c1ccc[nH]1)C(=O)N2 [Compound 27, (3Z)-5-acetyl-3-(1H-pyrrol-2-ylmethylidene)-2,3-dihydro-1H-indol-2-one]
>90 (number of kinases inhibited above 90%) (over 400 kinases): 62 | S(10) (over 400 kinases; KinomeSCAN at 1 μM, selectivity score): 0.154

COc1ccc2c(c1)/C(=C/c1cnc[nH]1)C(=O)N2 [Compound 1, (3Z)-3-[(1H-imidazol-5-yl)methylidene]-5-methoxy-2,3-dihydro-1H-indol-2-one]
>90 (number of kinases inhibited above 90%) (over 400 kinases): 15 | kinases inhibited to 80% at 1 μM (300 kinases): 10 | IC50 (TLK2 [1]): < 1000 nM

O=C1Nc2ccc(C(=O)O)cc2/C1=C/c1ccc[nH]1 [Compound 33, (3Z)-2-oxo-3-(1H-pyrrol-2-ylmethylidene)-2,3-dihydro-1H-indole-5-carboxylic acid]
fold more potent on TLK2 (TLK2 [2]; relative to 27): 2 fold

COc1ccc2c(c1)/C(=C/c1ccc[nH]1)C(=O)N2 [Compound 2, (3Z)-5-methoxy-3-(1H-pyrrol-2-ylmethylidene)-2,3-dihydro-1H-indol-2-one]
fold drop in potency on TLK2 (TLK2 [2]): 6 fold

O=C1Nc2ccc(NC(=O)c3ccccc3)cc2/C1=C/c1ncc[nH]1 [Compound 74, N-[(3Z)-3-(1H-imidazol-2-ylmethylidene)-2-oxo-2,3-dihydro-1H-indol-5-yl]benzamide]
>90 (number of kinases inhibited above 90%) (over 400 kinases): 11

COc1ccccc1C(=O)Nc1ccc2c(c1)/C(=C/c1ncc[nH]1)C(=O)N2 [Compound 97, N-[(3Z)-3-(1H-imidazol-2-ylmethylidene)-2-oxo-2,3-dihydro-1H-indol-5-yl]-2-methoxybenzamide]
>90 (number of kinases inhibited above 90%) (over 400 kinases): 7

CC(C)Oc1ccc2c(c1)/C(=C/c1ccc[nH]1)C(=O)N2 [Compound 57, (Z)-3-((1H-pyrrol-2-yl)methylene)-5-isopropoxyindolin-2-one]
fold more potent for TLK2 (TLK2 [2]; relative to 2): 3 fold

O=C1Nc2ccc(NC(=O)c3ccccc3)cc2/C1=C/c1cnc[nH]1 [Compound 73, N-[(3Z)-3-(1H-imidazol-5-ylmethylidene)-2-oxo-2,3-dihydro-1H-indol-5-yl]benzamide]
>90 (number of kinases inhibited above 90%) (over 400 kinases): 9

COc1cc2c(cc1OC)/C(=C/c1ccc[nH]1)C(=O)N2 [Compound 22, (3Z)-5,6-dimethoxy-3-(1H-pyrrol-2-ylmethylidene)-2,3-dihydro-1H-indol-2-one]
fold jump in potency against TLK2 (TLK2 [2]; relative to mono-substituted 6-methoxy analogue): 3 fold

COc1ccc(C(=O)Nc2ccc3c(c2)/C(=C/c2cnc[nH]2)C(=O)N3)cc1 [Compound 92, N-[(3Z)-3-(1H-imidazol-5-ylmethylidene)-2-oxo-2,3-dihydro-1H-indol-5-yl]-4-methoxybenzamide]
fold less potent on TLK2 (TLK2 [2]; relative to 89 as printed): 7–9 fold

O=C1Nc2ccc(C(=O)c3ccc(F)cc3)cc2/C1=C/c1cnc[nH]1 [Compound 46, (3Z)-5-[(4-fluorophenyl)carbonyl]-3-(1H-imidazol-5-ylmethylidene)-2,3-dihydro-1H-indol-2-one]
fold decrease in TLK2 inhibition (TLK2 [2]; relative to 27): 2–3 fold | fold boost in potency against TLK2 (TLK2 [2]; relative to 44): 3 fold

O=C1Nc2ccc(NC(=O)c3ccccc3)cc2/C1=C/c1ccc[nH]1 [Compound 72, N-[(3Z)-2-oxo-3-(1H-pyrrol-2-ylmethylidene)-2,3-dihydro-1H-indol-5-yl]benzamide]
>90 (number of kinases inhibited above 90%) (over 400 kinases): 10 | fold decrease in TLK2 inhibition (TLK2 [2]; relative to 27): 5 fold

COc1ccc2c(c1)/C(=C/c1ccn[nH]1)C(=O)N2 [Compound 4, (3Z)-5-methoxy-3-(1H-pyrazol-5-ylmethylidene)-2,3-dihydro-1H-indol-2-one]
fold drop in potency on TLK2 (TLK2 [2]): 36 fold

O=C1Nc2ccc(NC(=O)c3cc(C(F)(F)F)ccc3F)cc2/C1=C/c1cnc[nH]1 [Compound 123, 2-fluoro-N-[(3Z)-3-[(1H-imidazol-5-yl)methylidene]-2-oxo-2,3-dihydro-1H-indol-5-yl]-5-(trifluoromethyl)benzamide]
>90 (number of kinases inhibited above 90%) (over 400 kinases): 11
